According to ChEMBL document CHEMBL3507680, “University of Dundee, Gates Library screen for HepG2 cell viability”:

experiment: Human HepG2 cell viability assay in 384 well format; assay type: toxicity, cell-based; set-up: dose 125 nL, time 70.5 hour; cytotoxicity at 70.5 h: concentration not given beside the values; conditions: HepG2 cells, read-out: Inhibition

| Compound | cytotoxicity at 70.5 h |
| --- | --- |
| NC(=O)c1ccc(-n2ccnc2-c2cccc(O)c2)cc1N1CCCC1 | -6.04% |
| O=C(COCc1ccccc1Cl)Nc1ccnn1CC1CCOC1 (centres undefined) | -18.3% |
| CCOCC(=O)NCC(CC)(OC)c1ccccc1 (centres undefined) | -12.4% |
| CCOCC(=O)N1CCCn2c(CN3CCOCC3)nnc2C1 | 2.86% |
| Cc1cc(NC(=O)CN2CCn3c(nnc3C3CC3)C2)n(C)n1 | 7.81% |
| COc1cccc(CCC(=O)N2CCCCC2Cn2cccn2)c1 (centres undefined) | -11.2% |
| COc1ccc([C@@H]2CN(C(=O)CCC(F)(F)F)C[C@H]2NC(C)=O)cc1 | -5.27% |
| Cc1cc(CN(C)C(=O)NC2CCN(Cc3ccccn3)CC2)no1 | 1.36% |
| NC(=O)C1(Cc2ccc(-c3ccccc3)cc2)CCCNC1 (centres undefined) | -1.37% |
| CCn1cnnc1C1CCN(C(=O)c2cccc(OC)c2OC)CC1 | -7.68% |
| CNC(=O)CN1CCC(NC(=O)C(C)Oc2ccccc2C#N)CC1 (centres undefined) | -3.18% |
| O=C(C1CCC1)N1CCc2[nH]cnc2C12CCN(C1CCOCC1)CC2 | -0.358% |
| Oc1cccc(CNCC2CCCO2)c1 (centres undefined) | 10.4% |
| COCCCN(C)S(=O)(=O)c1ccc(C(F)(F)F)cc1C#N | -10.6% |
| Cc1ccc(CN(C)C)cc1NC(=O)C1CC=CC1 | -3.31% |
| COc1ccccc1N1CCN(C(=O)COc2c(C)occc2=O)CC1 | 6.76% |
| O=C(NCCCN1CCOCC1)c1nc(-c2ccc3cc[nH]c3c2)no1 | -16.3% |
| CCc1nc(C2CCCN(C(=O)CCn3ccccc3=O)C2)no1 (centres undefined) | -0.684% |
| Cc1cc(C)n(CC(C)NC(=O)C(C)(C)c2ccccc2F)n1 (centres undefined) | 6.99% |
| Cc1cnn(CC2CCN(CC(O)COc3ccccc3)CC2)c1 (centres undefined) | 4.78% |
| Cn1cnnc1C1CCN(C(=O)Cc2ccc3c(c2)OCCO3)CC1 | -2.32% |
| COc1cccc(N2CCN(C(=O)C(OC)c3ccccc3)CC2=O)c1 (centres undefined) | -7.1% |
| CN(C)c1cc(CNc2cncc(-n3cccn3)n2)ccn1 | -15.7% |

| Compound | cytotoxicity at 70.5 h |
| --- | --- |
| CC(CN(C)C(=O)c1cn(C)nc1-c1ccc(F)cc1F)C(=O)O (centres undefined) | -1.61% |
| Cc1ncc(CN(C)C2CCCN(Cc3noc(C4CC4)n3)C2)s1 (centres undefined) | -12.3% |
| O=S1(=O)NC[C@H]2CCN(Cc3ccccc3)CC[C@H]21 | -2.52% |
| COc1cc2ccn(CCS(C)(=O)=O)c(=O)c2cc1F | -2.4% |
| CCCC(=O)N1CCc2nc3cc(OC)c(OC)cc3c(=O)n2CC1 | -5.67% |
| CC(C)C(=O)N1CCCC1c1nc(N(C)C)ncc1-c1ccc(Cl)cc1 (centres undefined) | 6.28% |
| Cc1ccccc1C(NC(=O)NCC1(CO)CC1)C1CC1 (centres undefined) | -1.18% |
| O=C(NC1CCCC1)c1ccc(COCC(F)(F)F)o1 | -0.375% |
| CCCOCCN1CCc2[nH]c(-c3ccc(OC)cc3)nc2C1 | -17% |
| Cc1cc(C(=O)Nc2cnn(CC(=O)NC3CCCC3)c2)c(C)s1 | -6.94% |
| c1ccc(Cn2cccn2)c(CNCC2CNc3ccnn3C2)c1 (centres undefined) | -11.7% |
| Cc1ccccc1OCCC(=O)N1CCC(c2nncn2C)CC1 | -0.859% |
| CCc1ncc(C(=O)N2CCCOC(Cn3cccn3)C2)cn1 (centres undefined) | -0.891% |
| Cc1cc(C(=O)N2CC[C@@]3(C[C@@H](NS(C)(=O)=O)CCO3)C2)no1 | -4.95% |
| CCN1CC(C(=O)NCc2noc(Cc3ccccc3)n2)CCC1=O (centres undefined) | -12.4% |
| CCCN1CCC(CC(=O)N[C@H](C(=O)O)c2cccc(F)c2F)CC1 | -8.2% |
| CCCS(=O)(=O)N1CCC(NC(=O)c2cc(C)c(CC)s2)CC1 | -12.1% |
| CCC(=O)N1CCC(c2nc(O)c3c(n2)CN(C2CCCCC2)CC3)C1 (centres undefined) | 31.2% |
| CC(=O)N1CCC2(CC1)C(=O)N(C)c1ccc(F)cc12 | -8.53% |
| c1csc(CN2Cc3nccn3CC(Cn3cncn3)C2)n1 (centres undefined) | -7.09% |
| C[C@@H](O)CNC(=O)c1nc(CC(=O)Nc2cccc(C(F)(F)F)c2)no1 | -23.7% |
| Cc1cccc(C(=O)NCc2ccc(CS(N)(=O)=O)cc2)n1 | -16.5% |
| COc1cccc(-n2c(C)cc(C(=O)NCCCC(N)=O)c2C)c1 | -10.3% |

| Compound | cytotoxicity at 70.5 h |
| --- | --- |
| C[S+]([O-])c1nncn1CC(=O)c1cccc(Cl)c1 (centres undefined) | -7.53% |
| CS(=O)(=O)NC[C@@H]1OC[C@H]2CN(C(=O)c3ccc[nH]3)CC[C@H]21 | 3.6% |
| NC(=O)c1cc(C2CCCN(CCOc3ccc(F)cc3)C2)n[nH]1 (centres undefined) | -2.25% |
| O=C(Nc1ccc(-c2cnc(NCCO)nc2)cc1)[C@@H]1CCCCN1 | -3.46% |
| COc1cc(NC(=O)NCc2nccn2C)ccc1Br | -4.24% |
| Cc1cccc2c1ccn2CCC(=O)O | 3.02% |
| O=C(c1ccco1)N1CCCC2(CCN(CCN3CCCC3)C2=O)C1 (centres undefined) | -3.97% |
| CCNC(=O)C1CCN(c2nccc(C3CCCC3)n2)C1 (centres undefined) | -17.7% |
| COCCS(=O)(=O)Nc1ccc(-n2cncn2)c(F)c1 | -8.99% |
| N#Cc1cccnc1N1CCCC(CO)(CCOc2ccccc2)C1 (centres undefined) | -7.83% |
| CCC(C(=O)Nc1ccc2cn(CC)nc2c1)N1CCCC1=O (centres undefined) | -24.8% |
| CCCSc1ncc(CN2CCN(C)C(=O)C2C)cn1 (centres undefined) | 20.3% |
| Cc1cccc(CN2CCC3(CCN(c4ccccn4)C3)C2=O)c1 (centres undefined) | -11.4% |
| CCc1ncc2c(n1)CN(C(=O)COC)C2 | -4.18% |
| COc1ccccc1C(=O)N1CC(=O)N(CC2CC2)CC(O)C1 (centres undefined) | -0.352% |
| Cc1csc(CNC(=O)N2CCCC(c3nncn3C)C2)n1 (centres undefined) | -4.57% |
| CN([C@@H]1CCC[C@@H](n2ccnc2)[C@@H]1O)S(=O)(=O)c1cn(C)cn1 | 19.9% |
| N#Cc1nccnc1N1CCC(CSc2ccccc2)C1 (centres undefined) | -9.74% |
| Cc1n[nH]c2c1C(c1ccc(O)c(Cl)c1)SCC(=O)N2 (centres undefined) | 1.38% |
| CC(C)c1nc2n(n1)CC(NCC(=O)NCCC1=CCCCC1)CC2 (centres undefined) | -0.816% |
| COCCCNC(=O)c1cc(-c2cnc(N3CCOCC3)nc2)cn1C | -6.15% |
| CCN1CCCC1CN(Cc1ccoc1)CC1CCN(CCOC)CC1 (centres undefined) | -3.24% |
| Cc1cccc(NC(=O)Cn2ncc(SCC(N)=O)c(Cl)c2=O)c1C | -13.7% |

| Compound | cytotoxicity at 70.5 h |
| --- | --- |
| OC(CNCCc1nnc2ccccn12)c1ccc(F)c(F)c1 (centres undefined) | -6.79% |
| COc1cc(N2CCc3ncnc(-c4ccncc4)c3CC2)ncn1 | -6.14% |
| CCN1CCOCC12CCN(c1nccs1)CC2 | -13.5% |
| COc1cccc(SCC(=O)N2CCC(N3CCCC3=O)CC2)c1 | -6.36% |
| CCOC1(C)C(=O)c2ccccc2N1Nc1ccccc1C(=O)CC (centres undefined) | -14.4% |
| O=C(NCCNS(=O)(=O)C1CCCCC1)c1ccccc1 | -10.7% |
| CN(CC(=O)N1CC(C)(C)[C@@](C)(O)C1)Cc1ccncc1 | -6.29% |
| O=C(NC1CCC(N2C(=O)CCC2=O)CC1)c1c[nH]c2ccccc12 (centres undefined) | 10.8% |
| O=C1CC(c2ncc(-c3ccc4c(c3)OCCO4)[nH]2)CN1C1CC1 (centres undefined) | -7.8% |
| Cc1nnsc1C(=O)NCC1CCN(c2ccccn2)CC1 | -8.36% |
| COc1ccc2c(c1)CN(c1cc(N3CCCC3CO)ncn1)CC2 (centres undefined) | -7.51% |
| COc1ccc(-n2cccn2)c(CN2CCC3(CCCN(C)C3=O)C2)c1 (centres undefined) | -9.91% |
| Cc1ccc2nc(CN3CCCCC3CCn3cccn3)cn2c1 (centres undefined) | 6.68% |
| Cc1ccc(CN(C)C(=O)NCC(C)(C)CCS(C)(=O)=O)s1 | -1.02% |
| CC(C)c1noc(C2CCCN2C(=O)CN2CCc3ccccc32)n1 (centres undefined) | 23.7% |
| O=S(=O)(Cc1ccc(F)cc1)NCc1nnc2n1CCC2 | -24.3% |
| Cc1nn(C)c(C)c1CC(=O)NCc1ccnc(OC2CCCC2)c1 | -5.31% |
| CCC(CN1CCOCC1)n1cncc1-c1ccc2c(c1)CCN2CC (centres undefined) | 21% |
| Cc1cc(C(=O)NC2CCCCNC2=O)c(=O)[nH]c1C (centres undefined) | -6.38% |
| COc1ccc(-c2n[nH]c(C)c2CC(=O)NCC2CCOCC2)cc1 | -10.5% |
| N#CCCN(CCC#N)C(=O)CN1CCCC1Cc1cccc(F)c1 (centres undefined) | -5% |
| CCc1c(C(=O)N2CCNC(=O)C2)cnn1C(C)(C)C | -6.91% |
| CNC(=O)CCS(=O)(=O)Cc1cc(Cl)c2c(c1)OCCO2 | -3.97% |

| Compound | cytotoxicity at 70.5 h |
| --- | --- |
| CCC1CN(C(=O)c2ccccc2C#N)CCN1C(C)C (centres undefined) | 14.9% |
| O=C(Cn1nc(Br)nc1Br)N1CCCCC1 | -3.74% |
| O=C(NC1CCOC1)c1cccc(S(=O)(=O)NCCCc2ncc[nH]2)c1 (centres undefined) | -13.4% |
| CC(C)Cc1noc(CN2CCN(C(=O)c3ccccc3F)CC2)n1 | 13.7% |
| CS(=O)(=O)Cc1noc(CN(Cc2ccco2)c2ccccc2)n1 | -5.15% |
| Cc1nc(CN2CCC3(CCCO3)CC2)c2ccccn12 | 14.9% |
| CC(C)(C)OC(=O)N1CCCc2ccc(NCc3ncc[nH]3)cc21 | 9.84% |
| COCC(=O)N1CCN(S(=O)(=O)c2cccs2)[C@H]2CS(=O)(=O)C[C@H]21 | -7.15% |
| O=S1(=O)C[C@@H]2[C@H](C1)N(S(=O)(=O)N1CCCC1)CCN2Cc1ccccc1 | -5.47% |
| Cc1nn(C)c(C)c1CCC(=O)NCC1(C(N)=O)CCOCC1 | -17.6% |
| O=C(c1cccn1Cc1cccs1)N1CCC(C(=O)N2CCCC2)CC1 | -5.45% |
| Cc1nc(COCC2CNCc3nccn3C2)cs1 (centres undefined) | 7.13% |
| CCc1noc(C(C)N(C)CC(=O)Nc2cccc(C)n2)n1 (centres undefined) | -6.94% |
| CCOCC(O)CN1CCN(C(=O)Cc2cccc(C)c2)CC1 (centres undefined) | -4.31% |
| CCOc1ccc(N2CCCN=C2NC(=O)c2ccc(OC)cc2)cc1 | -9.82% |
| CC(C)(C)c1cc(C(=O)N2CCC(c3cnccn3)CC2)[nH]n1 | -5.82% |
| O=C(NCC1(O)CCOC1)NCC1(c2ccccc2Cl)CCC1 (centres undefined) | 0.471% |
| c1cncc(C2CC3(CCN(c4cnccn4)CC3)c3ccccc32)c1 (centres undefined) | -1.15% |
| Cn1cc(S(=O)(=O)N2CCCC2Cn2ccnc2)cn1 (centres undefined) | -3.56% |
| Cc1ccc(C(=O)NCC2CCN(C)c3ccccc32)c(=O)[nH]1 (centres undefined) | -2.94% |
| CNc1cncc(C2CCCN2C(=O)CCn2ccnc2)n1 (centres undefined) | -6.98% |
| COc1ccnc(CNc2nc(C)nc3ccsc23)c1 | 3.18% |
